Source: patent US20240398808A1, “DIHYDROFOLATE FOR HYPOGLYCEMIC ACTIVITY” (COUNCIL OF SCIENTIFIC AND INDUSTRIAL RESEARCH an india …, priority 2023, published 2024)
Marks after values point to notes of the source that are not given here.

Key:
diabetic Wistar rats [1] = experiment: Organ weight after long-term oral administration in diabetic Wistar rats; format: in vivo; parameters: unit not given here; conditions: mean±SD (n=6)
Experimental: The results are presented as mean±SD (n=6), and the significance of the values was analyzed by one-way ANOVA followed by Tukey's test (p<0.05). *p<0.05, **p<0.01, ***p<0.001, ****p<0.0001.

rat liver homogenate = experiment: In vitro glucose assay using rat liver homogenate; format: biochemical; conditions: 100 μM glucose, 25 μM or 50 μM folates, 37° C., 1 hour
Experimental: The glucose concentration was determined after incubation at 37° C. for 1 hour.
(A) Folates at a concentration of 25 μM. (B) Folates at 50 μM. Control represents glucose concentration without folate treatment which is considered to be 100%. The results are presented as mean±SD (n=3), and the significance of the values was analyzed by one-way ANOVA followed by Tukey's test (p<0.05). *p<0.05, **p<0.01, […], ***p<0.0001.

diabetic Wistar rats [2] = experiment: Organ histology (islets of the pancreas) in diabetic Wistar rats; format: in vivo; conditions: long-term oral administration
diabetic Wistar rats [3] = experiment: Oral glucose tolerance test (OGTT) in diabetic Wistar rats; format: in vivo; conditions: for whole blood glucose values from baseline: 0-120 min
Experimental: Fasting blood sugar concentration was estimated.
Oral glucose tolerance test (OGTT). The test was performed by oral administration of glucose (2 g/kg body wt). Graph showing blood glucose concentration before (0 min) and 30, 60, 90, and 120 min after administration. Data are shown as the mean±SEM (n=6).

[4] = 400 μg folate vs equimolar amounts, after 8 weeks of treatment; cited from earlier work

Structure (SMILES): CN1c2c(nc(N)[nH]c2=O)NCC1CNc1ccc(C(=O)N[C@@H](CCC(=O)O)C(=O)O)cc1 (some centres unmarked) [5-methyltetrahydrofolate]
- Organ weight, Adipose (diabetic Wistar rats [1]): 2.77 ± 2.11**
- Organ weight, Brain (diabetic Wistar rats [1]): 1.46 ± 0.18
- Organ weight, Cecum matter (diabetic Wistar rats [1]): 4.33 ± 0.95
- Organ weight, Heart (diabetic Wistar rats [1]): 0.82 ± 0.23
- Organ weight, Kidney (diabetic Wistar rats [1]): 2.12 ± 0.2
- Organ weight, Liver (diabetic Wistar rats [1]): 8.49 ± 2.52
- Organ weight, Lungs (diabetic Wistar rats [1]): 1.93 ± 0.62
- Organ weight, Spleen (diabetic Wistar rats [1]): 0.92 ± 0.35
- Organ weight, Testes (diabetic Wistar rats [1]): 2.31 ± 0.79
- glucose concentration upon treatment (rat liver homogenate): decreased
- histology of islets of the pancreas / beta cells (diabetic Wistar rats [2]): Moderate hypertrophy of islets of the pancreas and moderate hyperplasia of beta cells
- time at which decline in whole blood glucose leveled off (diabetic Wistar rats [3]; OGTT): about 120 minutes
- whole blood glucose values from baseline (diabetic Wistar rats [3]; OGTT): gradual decline

Structure (SMILES): CN1c2c(nc(N)[nH]c2=O)NC[C@H]1CNc1ccc(C(=O)N[C@@H](CCC(=O)O)C(=O)O)cc1 [[6R,S]-5-methyltetrahydrofolate]
- serum folate concentrations compared to the folate group [4]: ~3 fold

Structure (SMILES): Nc1nc(=O)c2c([nH]1)NCC(CNc1ccc(C(=O)N[C@@H](CCC(=O)O)C(=O)O)cc1)=N2 [dihydrofolate]
- Organ weight, Adipose (diabetic Wistar rats [1]): 5.43 ± 1.75*
- Organ weight, Brain (diabetic Wistar rats [1]): 1.64 ± .09
- Organ weight, Cecum matter (diabetic Wistar rats [1]): 2.72 ± 0.51
- Organ weight, Heart (diabetic Wistar rats [1]): 0.88 ± 0.07
- Organ weight, Kidney (diabetic Wistar rats [1]): 1.74 ± 0.21
- Organ weight, Liver (diabetic Wistar rats [1]): 10.68 ± 1.46
- Organ weight, Lungs (diabetic Wistar rats [1]): 2.09 ± 0.18
- Organ weight, Spleen (diabetic Wistar rats [1]): 1.09 ± 0.10
- Organ weight, Testes (diabetic Wistar rats [1]): 2.88 ± 0.27
- glucose concentration upon treatment (rat liver homogenate): decreased
- histology of islets of the pancreas / beta cells (diabetic Wistar rats [2]): Severe hypertrophy of islets of the pancreas with hyperplasia of beta cells
- whole blood glucose values from baseline (diabetic Wistar rats [3]; OGTT): more gradual decline
- glucose tolerance (diabetic Wistar rats [3]; oral glucose 2 g/kg body wt): greater effect

Structure (SMILES): Nc1nc(=O)c2nc(CNc3ccc(C(=O)N[C@@H](CCC(=O)O)C(=O)O)cc3)cnc2[nH]1 [synthetic folate]
- Organ weight, Adipose (diabetic Wistar rats [1]): 0.87 ± 0.60****
- Organ weight, Cecum matter (diabetic Wistar rats [1]): 6.46 ± 1.49
- Organ weight, Heart (diabetic Wistar rats [1]): 0.68 ± 0.07
- Organ weight, Kidney (diabetic Wistar rats [1]): 2.12 ± 0.46
- Organ weight, Liver (diabetic Wistar rats [1]): 7.35 ± 1.02
- Organ weight, Lungs (diabetic Wistar rats [1]): 1.46 ± 0.38
- Organ weight, Spleen (diabetic Wistar rats [1]): 0.66 ± 0.08
- Organ weight, Testes (diabetic Wistar rats [1]): 2.57 ± 0.95
- glucose concentration upon treatment (rat liver homogenate): no effect
- histology of islets of the pancreas / beta cells (diabetic Wistar rats [2]): Moderate atrophy of islets of the pancreas with apoptosis of beta cells
- whole blood glucose values from baseline (diabetic Wistar rats [3]; OGTT): did not show much declaim
